In patent US20120277211A1, “METHODS AND COMPOSITIONS FOR THE TREATMENT OF PSYCHOTIC DISORDERS THROUGH THE IDENTIFICATION OF THE SULT4A1-1 HAPLOTYPE” (priority 2009, published 2012):
Read-outs that look alike come from different tables or passages of the source. Marks after values point to notes of the source that are not given here.

Key:
[1] = system: African American schizophrenia patients; test: CATIE: change in total PANSS (LOCF) by SULT4A1-1 haplotype status, African Americans; assay type: in vivo, human; conditions: for Number of individuals with change in total PANSS ≦−20% (responders) / Number of individuals with change in total PANSS ≧−20% (non-responders): LOCF
Method: The design of the CATIE study has been described in detail by others (Lieberman et al., 2005; Stroup et al., 2003). […] A total of 738 subjects consented to provide DNA for genetic study. […] Retrospective genetic analyses, judged to be exempt from human studies requirements by an IRB, were conducted in the current study. All tested patients were studied using well established clinical endpoints comparing baseline, intermediate, and last observation carried forward (LOCF) for the PANSS scores using CATIE data. […] To remove time on drug as a variable for the CATIE trial, analysis was limited to only those patients who were randomized to a different drug following the initial washout period (drug switchers).

[2] = system: Caucasian schizophrenia patients; test: CATIE: time to discontinuation for all causes by SULT4A1-1 status; assay type: in vivo, human; conditions: SULT4A1-1 negative
From the text: The primary endpoint for the CATIE study was time to discontinuation for all causes (Lieberman et al., 2005). Thus the inventors evaluated the effect of SULT41-1 status on this important parameter.

schizophrenia patients [3] = test: CATIE: months of successful treatment measured by the CGI scale (TMSUCC1); assay type: in vivo, human
From the text: The CATIE clinical data set included Clinical Global Impression (CGI) Scale, an observer-provided assessment of the psychiatric health of the patient (Stroup et al., 2003; Guy 1976). Patients are rated with the CGI Scale from 1 to 7, with higher scores indicating greater severity of illness. The CATIE study provided a response variable that measured the time (in months) of successful treatment as measured by the CGI scale (“TMSUCC1” in the CATIE data).

[4] = system: Caucasian schizophrenia patients; test: CATIE: hospitalization due to exacerbation of psychosis by SULT4A1-1 status; assay type: in vivo, human
From the text: To assess if SULT4A1-1 status impacts the risk of hospitalization in Caucasians, the inventors assigned SULT4A1-1 status to each CATIE subject and evaluated hospitalization events due to exacerbation of psychosis. For this analysis, the inventors assigned a dichotomous value (positive or negative) for hospitalization status to subjects in each phase of the trial based on only the first hospitalization event for a given patient in that phase. Patients participating in Phases 1, 2, and/or 3 were included in the totals for the appropriate drug.
A Kaplan-Meier survival analysis was performed to determine whether there was a difference between the survival (hospitalization) rates for the SULT4A1-1 negative and SULT4A1-1 positive patient populations treated with each of the atypical antipsychotics. Survival plots model the fraction of the population that survived (i.e., no hospitalization event) as a function of time.

schizophrenia patients [5] = conditions: Phase II; for Responders: decrease PANSS ≧20%, LOCF
schizophrenia patients [6] = conditions: published CATIE results (Lieberman et al. 2005); cited from earlier work

## Cc1cc2c(s1)Nc1ccccc1N=C2N1CCN(C)CC1 [Olanzapine]
[1]; SULT4A1-1 negative
  Responders: 33.3%
  Number of individuals with change in total PANSS ≦−20% (responders): 15
  Number of individuals with change in total PANSS ≧−20% (non-responders): 30
[1]; SULT4A1-1 positive
  Responders: 25%
  Number of individuals with change in total PANSS ≦−20% (responders): 1
  Number of individuals with change in total PANSS ≧−20% (non-responders): 3
[2]
  Time to discontinuation, mean: 10.0** Months
Schizophrenia patients [3]; SULT4A1-1 negative
  Length of successful treatment (CGI Months), Mean: 5.44 Months
Schizophrenia patients [3]; SULT4A1-1 positive
  Length of successful treatment (CGI Months), Mean: 8.33^d Months
Schizophrenia patients [3]; Unsegmented
  Length of successful treatment (CGI Months), Mean: 6.10 Months
[4]; SULT4A1-1 negative
  HOSP, number of patients hospitalized: 22
[4]; SULT4A1-1 positive
  HOSP, number of patients hospitalized: 1
  HOSP, rate of hospitalization: 2.6%
[4]; Unsegmented
  HOSP, rate of hospitalization: 14.2%
[4]; Unsegmented, Phases 1, 2 and/or 3, first event
  HOSP, number of patients hospitalized: 23
Schizophrenia patients [5]; SULT4A1-1 Negative
  Nonresponders: 14
  Responders: 3
Schizophrenia patients [5]; SULT4A1-1 Positive
  % Responders: 42.9%
  Nonresponders: 4
  Responders: 3
Schizophrenia patients [6]
  Incidence of clinically significant weight gain compared to other drugs: higher incidence of clinically significant weight gain
